Source: PubChem BioAssay AID328 (DTP/NCI, 2004)
Values joined by “and” are separate entries in the source; they are usually repeats but may differ in a detail not shown here. Equal entries are not always repeated. Inconclusive results and toxic doses are left out. The calls were made as follows: active = survival T/C of 150% or more; inactive = T/C below 125% in these data.

Tested on: BDF1 mice, P388 leukemia ip, median survival T/C
Assay: NCI In Vivo Anticancer Drug Screen. Data for tumor model P388 Leukemia (intraperitoneal) in B6D2F1 (BDF1) mice
Conditions: endpoint: median survival time, higher = longer survival
In short: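 Transplantable tumour in mice; compound vs vehicle dosing; survival scored; ratio of treated to control reported.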

[1] = dose: 200.0 mg/kg/injection, schedule: Q04DX003 (ip), vehicle: Klucel (hydroxypropylcellulose) (HPC)
[2] = dose: 25.0 mg/kg/injection, schedule: Q01DX009 (ip), vehicle: saline with Tween-80
[3] = dose: 50.0 mg/kg/injection, schedule: Q01DX009 (ip), vehicle: saline with Tween-80
[4] = dose: 200.0 mg/kg/injection, schedule: Q01DX009 (ip), vehicle: saline with Tween-80

Measured: T/C

c1ccc2c3nc(nc2c1)CCCCCCCN3
inactive: dose: 100.0 mg/kg/injection, schedule: Q04DX003 (ip), vehicle: Klucel (hydroxypropylcellulose) (HPC) 109 % of control | [1] 94 % of control

O=C1c2cccnc2C(=O)c2c(O)ccc(O)c21
inactive: [2] 97 % of control | [3] 99 % of control | dose: 100.0 mg/kg/injection, schedule: Q01DX009 (ip), vehicle: saline with Tween-80 92 % of control | [4] 115 % of control

Nc1nc(=O)c2[nH]cnc2n1O
inactive: dose: 13.75 mg/kg/injection, schedule: Q01DX009 (ip), vehicle: saline 90 % of control | dose: 27.5 mg/kg/injection, schedule: Q01DX009 (ip), vehicle: saline 95 % of control

O=c1[nH]c(=O)n([C@H]2CCCO2)cc1F
inactive: dose: 23.0 mg/kg/injection, schedule: Q01DX009 (ip), vehicle: water 89 % of control | dose: 39.0 mg/kg/injection, schedule: Q01DX009 (ip), vehicle: water 87 % of control | dose: 44.0 mg/kg/injection, schedule: Q01DX009 (ip), vehicle: Klucel (hydroxypropylcellulose) (HPC) 104 % of control and 108 % of control and 109 % of control | dose: 59.0 mg/kg/injection, schedule: Q01DX009 (ip), vehicle: Klucel (hydroxypropylcellulose) (HPC) 100 % of control and 107 % of control and 111 % of control | dose: 65.0 mg/kg/injection, schedule: Q01DX009 (ip), vehicle: water 99 % of control | dose: 65.0 mg/kg/injection, schedule: Q04DX003 (ip), vehicle: water 89 % of control | dose: 75.0 mg/kg/injection, schedule: Q04DX003 (ip), vehicle: other 118 % of control | dose: 90.0 mg/kg/injection, schedule: Q01DX009 (ip), vehicle: Klucel (hydroxypropylcellulose) (HPC) 87 % of control and 104 % of control and 112 % of control | dose: 108.0 mg/kg/injection, schedule: Q01DX009 (ip), vehicle: water 101 % of control | dose: 108.0 mg/kg/injection, schedule: Q04DX003 (ip), vehicle: water 98 % of control | dose: 134.0 mg/kg/injection, schedule: Q01DX009 (ip), vehicle: Klucel (hydroxypropylcellulose) (HPC) 108 % of control and 120 % of control (2×) | dose: 142.0 mg/kg/injection, schedule: Q04DX003 (ip), vehicle: Klucel (hydroxypropylcellulose) (HPC) 103 % of control and 109 % of control and 110 % of control | dose: 150.0 mg/kg/injection, schedule: Q04DX003 (ip), vehicle: other 118 % of control | dose: 180.0 mg/kg/injection, schedule: Q01DX009 (ip), vehicle: water 89 % of control | dose: 180.0 mg/kg/injection, schedule: Q04DX003 (ip), vehicle: water 96 % of control | dose: 189.0 mg/kg/injection, schedule: Q04DX003 (ip), vehicle: Klucel (hydroxypropylcellulose) (HPC) 105 % of control and 113 % of control and 117 % of control | dose: 201.0 mg/kg/injection, schedule: Q01DX009 (ip), vehicle: Klucel (hydroxypropylcellulose) (HPC) 102 % of control and 111 % of control | dose: 288.0 mg/kg/injection, schedule: Q04DX003 (ip), vehicle: Klucel (hydroxypropylcellulose) (HPC) 109 % of control and 112 % of control and 118 % of control | dose: 300.0 mg/kg/injection, schedule: Q04DX003 (ip), vehicle: other 118 % of control | dose: 300.0 mg/kg/injection, schedule: Q04DX003 (ip), vehicle: water 100 % of control | dose: 316.0 mg/kg/injection, schedule: Q01DX001 (ip), vehicle: Klucel (hydroxypropylcellulose) (HPC) 104 % of control (2×) and 109 % of control | dose: 421.0 mg/kg/injection, schedule: Q01DX001 (ip), vehicle: Klucel (hydroxypropylcellulose) (HPC) 109 % of control and 111 % of control and 123 % of control | dose: 430.0 mg/kg/injection, schedule: Q04DX003 (ip), vehicle: Klucel (hydroxypropylcellulose) (HPC) 109 % of control and 110 % of control and 113 % of control | dose: 500.0 mg/kg/injection, schedule: Q04DX003 (ip), vehicle: water 92 % of control | dose: 600.0 mg/kg/injection, schedule: Q04DX003 (ip), vehicle: other 95 % of control | dose: 641.0 mg/kg/injection, schedule: Q01DX001 (ip), vehicle: Klucel (hydroxypropylcellulose) (HPC) 104 % of control and 118 % of control and 124 % of control | dose: 645.0 mg/kg/injection, schedule: Q04DX003 (ip), vehicle: Klucel (hydroxypropylcellulose) (HPC) 111 % of control and 114 % of control | dose: 957.0 mg/kg/injection, schedule: Q01DX001 (ip), vehicle: Klucel (hydroxypropylcellulose) (HPC) 104 % of control and 123 % of control | dose: 1200.0 mg/kg/injection, schedule: Q04DX003 (ip), vehicle: other 90 % of control | dose: 1436.0 mg/kg/injection, schedule: Q01DX001 (ip), vehicle: Klucel (hydroxypropylcellulose) (HPC) 105 % of control and 117 % of control

CSC1C(=O)Nc2cccc(C#N)c21 (stereo unspecified)
inactive: dose: 50.0 mg/kg/injection, schedule: Q04DX002 (ip), vehicle: saline with Tween-80 102 % of control | dose: 100.0 mg/kg/injection, schedule: Q04DX002 (ip), vehicle: saline with Tween-80 98 % of control | dose: 200.0 mg/kg/injection, schedule: Q04DX002 (ip), vehicle: saline with Tween-80 102 % of control

Cc1ccc(C(=O)C2CC2)cc1C
inactive: dose: 33.0 mg/kg/injection, schedule: Q01DX009 (ip), vehicle: saline with Tween-80 96 % of control | [3] 103 % of control | dose: 50.0 mg/kg/injection, schedule: Q04DX003 (ip), vehicle: saline with Tween-80 104 % of control | dose: 75.0 mg/kg/injection, schedule: Q01DX009 (ip), vehicle: saline with Tween-80 111 % of control | dose: 100.0 mg/kg/injection, schedule: Q04DX003 (ip), vehicle: saline with Tween-80 112 % of control | [4] 120 % of control | dose: 200.0 mg/kg/injection, schedule: Q04DX003 (ip), vehicle: saline with Tween-80 112 % of control

CCOCCc1ccccn1
inactive: dose: 100.0 mg/kg/injection, schedule: Q01DX009 (ip), vehicle: saline 100 % of control | dose: 200.0 mg/kg/injection, schedule: Q01DX009 (ip), vehicle: saline 104 % of control | dose: 400.0 mg/kg/injection, schedule: Q01DX009 (ip), vehicle: saline 122 % of control

COC1=C(C2=C(OC)C(=O)c3cc4oc(C)cc(=O)c4c(O)c3C2=O)C(=O)c2c(cc3oc(C)cc(=O)c3c2O)C1=O
inactive: dose: 0.37 mg/kg/injection, schedule: Q01DX009 (ip), vehicle: saline 99 % of control | dose: 0.75 mg/kg/injection, schedule: Q01DX009 (ip), vehicle: saline 105 % of control | dose: 1.5 mg/kg/injection, schedule: Q01DX009 (ip), vehicle: saline 111 % of control | dose: 3.0 mg/kg/injection, schedule: Q01DX009 (ip), vehicle: saline 101 % of control

Cc1ccc(C(=O)C2(c3ccc(C)cc3)OC(c3ccc(C)cc3)=C(c3ccc(C)cc3)S2)cc1 (stereo unspecified)
inactive: dose: 50.0 mg/kg/injection, schedule: Q01DX009 (ip), vehicle: other 104 % of control | dose: 100.0 mg/kg/injection, schedule: Q01DX009 (ip), vehicle: other 100 % of control | dose: 200.0 mg/kg/injection, schedule: Q01DX009 (ip), vehicle: other 100 % of control

CCC(C)(O)C#CC(C)(O)CC (stereo unspecified)
inactive: dose: 100.0 mg/kg/injection, schedule: Q04DX003 (ip), vehicle: saline 91 % of control | dose: 200.0 mg/kg/injection, schedule: Q04DX003 (ip), vehicle: saline 91 % of control | dose: 400.0 mg/kg/injection, schedule: Q04DX003 (ip), vehicle: saline 87 % of control

CC(=O)Nc1ccc(S(=O)(=O)N(CCO)c2ccccc2)cc1
inactive: dose: 12.5 mg/kg/injection, schedule: Q01DX009 (ip), vehicle: saline with Tween-80 104 % of control | dose: 12.5 mg/kg/injection, schedule: Q04DX003 (ip), vehicle: Klucel (hydroxypropylcellulose) (HPC) 100 % of control | [2] 104 % of control | dose: 25.0 mg/kg/injection, schedule: Q04DX003 (ip), vehicle: Klucel (hydroxypropylcellulose) (HPC) 109 % of control | [3] 96 % of control | dose: 50.0 mg/kg/injection, schedule: Q04DX003 (ip), vehicle: Klucel (hydroxypropylcellulose) (HPC) 109 % of control | [1] 87 % of control

CCOC(=O)CCN(CC1CC=CCC1)c1cc(O)c2c(c1O)C(=O)c1ccccc1C2=O (stereo unspecified)
inactive: dose: 50.0 mg/kg/injection, schedule: Q01DX005 (ip), vehicle: saline with Tween-80 94 % of control | dose: 100.0 mg/kg/injection, schedule: Q01DX005 (ip), vehicle: saline with Tween-80 89 % of control | dose: 200.0 mg/kg/injection, schedule: Q01DX005 (ip), vehicle: saline with Tween-80 90 % of control
